Values of other authors as cited in patent US20240016731A1, “Drug Implants Containing Apalutamide and Methods of Use Thereof” (The Regents of the University of California, priority 2020, published 2024).

Details: systemic (e.g., oral) administration, assuming 240 mg daily dose

CNC(=O)c1ccc(N2C(=S)N(c3cnc(C#N)c(C(F)(F)F)c3)C(=O)C23CCC3)cc1F [apalutamide, Apalutamide]
steady state blood plasma concentration of apalutamide: about 6 μg/ml
